Structures are written as SMILES.

The target in one data set is T1, telomerase (Homo sapiens, UniProt O14746).
T1 construct: assayed for telomerase activity using MGC-803 cells extract; endogenous in cells; host or cells: MGC-803 cell extract
The experiment in a line: Telomerase activity assay using MGC-803 cells extract. It counts as biochemical. As to conditions: mean ± SD.

T1 sequence (O14746 whole entry): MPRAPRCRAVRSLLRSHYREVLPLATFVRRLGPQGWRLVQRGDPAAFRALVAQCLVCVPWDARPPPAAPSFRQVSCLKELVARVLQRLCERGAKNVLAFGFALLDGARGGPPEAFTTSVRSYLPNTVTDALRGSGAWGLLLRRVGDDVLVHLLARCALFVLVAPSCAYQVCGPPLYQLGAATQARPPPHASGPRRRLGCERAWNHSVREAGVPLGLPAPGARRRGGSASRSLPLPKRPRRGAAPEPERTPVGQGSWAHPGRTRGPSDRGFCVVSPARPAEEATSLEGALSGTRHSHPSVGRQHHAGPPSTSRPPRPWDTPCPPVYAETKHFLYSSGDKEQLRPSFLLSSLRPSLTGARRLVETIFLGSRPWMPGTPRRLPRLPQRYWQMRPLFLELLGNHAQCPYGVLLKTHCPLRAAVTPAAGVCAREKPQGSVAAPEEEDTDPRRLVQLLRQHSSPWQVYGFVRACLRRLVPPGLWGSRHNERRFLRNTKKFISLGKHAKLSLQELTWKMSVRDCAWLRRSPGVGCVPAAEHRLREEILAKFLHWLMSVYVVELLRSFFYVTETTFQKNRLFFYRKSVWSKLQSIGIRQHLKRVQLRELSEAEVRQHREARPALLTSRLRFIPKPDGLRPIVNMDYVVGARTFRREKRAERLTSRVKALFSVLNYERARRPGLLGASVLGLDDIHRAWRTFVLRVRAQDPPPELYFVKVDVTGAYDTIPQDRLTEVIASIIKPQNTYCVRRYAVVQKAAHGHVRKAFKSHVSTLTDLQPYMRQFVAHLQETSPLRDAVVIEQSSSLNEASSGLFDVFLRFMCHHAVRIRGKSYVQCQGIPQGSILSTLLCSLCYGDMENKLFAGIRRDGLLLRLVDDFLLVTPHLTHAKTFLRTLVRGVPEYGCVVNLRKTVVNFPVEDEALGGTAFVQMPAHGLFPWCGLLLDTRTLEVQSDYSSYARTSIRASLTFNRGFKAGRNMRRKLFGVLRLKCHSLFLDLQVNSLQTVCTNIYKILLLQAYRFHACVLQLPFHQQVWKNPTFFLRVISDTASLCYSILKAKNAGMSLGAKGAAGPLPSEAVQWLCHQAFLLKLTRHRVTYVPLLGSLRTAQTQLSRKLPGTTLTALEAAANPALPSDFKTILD
T1 sequence (O60832 2-514 partner limits assumed): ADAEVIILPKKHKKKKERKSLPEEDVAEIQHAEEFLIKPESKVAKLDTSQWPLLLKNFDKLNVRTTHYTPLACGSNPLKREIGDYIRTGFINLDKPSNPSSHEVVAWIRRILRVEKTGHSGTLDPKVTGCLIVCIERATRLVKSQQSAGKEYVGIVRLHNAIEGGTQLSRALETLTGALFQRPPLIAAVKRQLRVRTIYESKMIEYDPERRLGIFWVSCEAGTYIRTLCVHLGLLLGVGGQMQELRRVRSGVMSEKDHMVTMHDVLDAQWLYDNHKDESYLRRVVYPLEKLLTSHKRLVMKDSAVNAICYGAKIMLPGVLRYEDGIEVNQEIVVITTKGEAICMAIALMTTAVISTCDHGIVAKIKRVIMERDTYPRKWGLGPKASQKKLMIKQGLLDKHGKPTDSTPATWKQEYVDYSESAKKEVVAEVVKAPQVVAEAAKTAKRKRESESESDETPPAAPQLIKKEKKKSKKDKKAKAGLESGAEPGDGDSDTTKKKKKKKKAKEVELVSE
T1 sequence (Q9NPE3 whole entry partner): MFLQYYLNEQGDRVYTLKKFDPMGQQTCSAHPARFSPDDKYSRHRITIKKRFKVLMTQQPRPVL
T1 sequence (Q9NX24 whole entry partner): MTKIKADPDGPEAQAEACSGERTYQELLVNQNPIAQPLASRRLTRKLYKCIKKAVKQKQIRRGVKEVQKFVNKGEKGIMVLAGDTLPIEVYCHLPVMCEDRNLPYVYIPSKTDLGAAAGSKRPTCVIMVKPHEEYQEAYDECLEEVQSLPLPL
T1 sequence (Q9NY12 whole entry partner): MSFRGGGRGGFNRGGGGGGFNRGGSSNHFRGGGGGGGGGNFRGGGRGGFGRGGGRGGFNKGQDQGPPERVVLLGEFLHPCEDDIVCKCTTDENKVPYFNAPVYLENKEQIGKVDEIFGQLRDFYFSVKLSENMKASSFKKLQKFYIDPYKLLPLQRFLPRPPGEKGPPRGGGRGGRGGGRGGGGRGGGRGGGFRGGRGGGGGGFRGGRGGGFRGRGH

The melting point is the temperature of the solid-liquid transition. In general, IC50 refers to the concentration that inhibits the measured activity by half. As for `COc1cc(OC)c2c(=O)c(OCC(=O)Nc3nnc(-c4cccc(F)c4)o3)c(-c3ccc(OC)c(OC)c3)oc2c1` [B3, 2–(2-(3,4-dimethoxyphenyl)-5,7-dimethoxy-4-oxo-4H-chromen-3-yloxy)-N-(5–(3-fluorophenyl)-1,3,4-oxadiazol-2-yl)acetamide], the melting point was in the range of 229 to 231 °C. Besides, it took 4.3 ± 0.77 µM to reach half-maximal inhibition against telomerase (IC50).

In turn, `COc1cc(OC)c2c(=O)c(OCC(=O)Nc3nnc(-c4ccco4)o3)c(-c3ccc(OC)c(OC)c3)oc2c1` [B31, 2–(2-(3,4-dimethoxyphenyl)-5,7-dimethoxy-4-oxo-4H-chromen-3-yloxy)-N-(5-(furan-2-yl)-1,3,4-oxadiazol-2-yl)acetamide] gave a melting point of 233 to 235 °C. On telomerase, this molecule came in with a concentration for half-maximal inhibition (IC50) of 2.82 ± 0.25 µM.

Molecule `COc1cc(OC)c2c(=O)c(OCC(=O)Nc3nnc(-c4cccc(Br)c4)o3)c(-c3cc(OC)c(OC)c(OC)c3)oc2c1` [A9, N-(5–(3-bromophenyl)-1,3,4-oxadiazol-2-yl)-2–(5,7-dimethoxy-4-oxo-2–(3,4,5-trimethoxyphenyl)-4H-chromen-3-yloxy)acetamide] returned a melting point of 202 to 204 °C. On telomerase, this molecule showed an IC50 of 2.01 ± 0.39 µM.

In turn, `COc1cc(OC)c2c(=O)c(OCC(=O)Nc3nnc(-c4ccc(Cl)c(Cl)c4)o3)c(-c3ccc(OC)c(OC)c3)oc2c1` [B25, N-(5–(3,4-dichlorophenyl)-1,3,4-oxadiazol-2-yl)-2–(2-(3,4-dimethoxyphenyl)-5,7-dimethoxy-4-oxo-4H-chromen-3-yloxy)acetamide] came in with a melting point of 230 to 232 °C. On telomerase, this molecule came in with a half-inhibitory concentration (IC50) of more than 60 µM.

The molecule `COc1cc(OC)c2c(=O)c(OCC(=O)Nc3nnc(-c4cccc(OCc5ccccc5)c4)o3)c(-c3cc(OC)c(OC)c(OC)c3)oc2c1` [A30, N-(5–(3-(benzyloxy)phenyl)-1,3,4-oxadiazol-2-yl)-2–(5,7-dimethoxy-4-oxo-2–(3,4,5-trimethoxyphenyl)-4H-chromen-3-yloxy)acetamide] had a melting point of 188 to 190 °C. Also, the concentration for half-maximal inhibition (IC50) against telomerase is more than 60 µM.

Molecule `COc1cc(OC)c2c(=O)c(OCC(=O)Nc3nnc(-c4cccc5ccccc45)o3)c(-c3cc(OC)c(OC)c(OC)c3)oc2c1` [A28, 2–(5,7-dimethoxy-4-oxo-2–(3,4,5-trimethoxyphenyl)-4H-chromen-3-yloxy)-N-(5-(naphthalen-1-yl)-1,3,4-oxadiazol-2-yl)acetamide] yielded a melting point of 238 to 240 °C. The molecule further registered a half-inhibitory concentration (IC50) at telomerase of 6.17 ± 0.99 µM.

On to `COc1ccc(-c2nnc(NC(=O)COc3c(-c4cc(OC)c(OC)c(OC)c4)oc4cc(OC)cc(OC)c4c3=O)o2)cc1` [A22, 2–(5,7-dimethoxy-4-oxo-2–(3,4,5-trimethoxyphenyl)-4H-chromen-3-yloxy)-N-(5–(4-methoxyphenyl)-1,3,4-oxadiazol-2-yl)acetamide], for which the melting point lay within 239 to 241 °C. For the same molecule, the IC50 at telomerase is 9.11 ± 1.88 µM.

With `COc1cc(OC)c2c(=O)c(OCC(=O)Nc3nnc(-c4ccc(Cl)c(Cl)c4)o3)c(-c3cc(OC)c(OC)c(OC)c3)oc2c1` [A25, N-(5–(3,4-dichlorophenyl)-1,3,4-oxadiazol-2-yl)-2–(5,7-dimethoxy-4-oxo-2–(3,4,5-trimethoxyphenyl)-4H-chromen-3-yloxy)acetamide], the melting point lay in the range of 222 to 224 °C. In addition, the IC50 against telomerase was more than 60 µM.

`COc1cc(OC)c2c(=O)c(OCC(=O)Nc3nnc(-c4ccccc4C(F)(F)F)o3)c(-c3cc(OC)c(OC)c(OC)c3)oc2c1` [A18, 2–(5,7-dimethoxy-4-oxo-2–(3,4,5-trimethoxyphenyl)-4H-chromen-3-yloxy)-N-(5–(2-(trifluoromethyl)phenyl)-1,3,4-oxadiazol-2-yl)acetamide] yielded a melting point of 191 to 193 °C. Besides, the midpoint of inhibition against telomerase, the IC50, lay at 1.07 ± 0.2 µM.

The molecule `COc1cc(OC)c2c(=O)c(OCC(=O)Nc3nnc(-c4cccc(C(F)(F)F)c4)o3)c(-c3cc(OC)c(OC)c(OC)c3)oc2c1` [A17, 2–(5,7-dimethoxy-4-oxo-2–(3,4,5-trimethoxyphenyl)-4H-chromen-3-yloxy)-N-(5–(3-(trifluoromethyl)phenyl)-1,3,4-oxadiazol-2-yl)acetamide] yielded a melting point of 220 to 222 °C. The midpoint of inhibition against telomerase, the IC50, lay at 4.11 ± 0.62 µM.

In turn, `COc1cc(OC)c2c(=O)c(OCC(=O)Nc3nnc(-c4ccc(Cl)cc4)o3)c(-c3ccc(OC)c(OC)c3)oc2c1` [B5, N-(5–(4-chlorophenyl)-1,3,4-oxadiazol-2-yl)-2–(2-(3,4-dimethoxyphenyl)-5,7-dimethoxy-4-oxo-4H-chromen-3-yloxy)acetamide] showed a melting point of 213 to 215 °C. On telomerase, this molecule had an IC50 of 4.22 ± 0.62 µM.

Regarding `COc1cc(OC)c2c(=O)c(OCC(=O)Nc3nnc(-c4ccccc4OC(F)(F)F)o3)c(-c3cc(OC)c(OC)c(OC)c3)oc2c1` [A21, 2–(5,7-dimethoxy-4-oxo-2–(3,4,5-trimethoxyphenyl)-4H-chromen-3-yloxy)-N-(5–(2-(trifluoromethoxy)phenyl)-1,3,4-oxadiazol-2-yl)acetamide], the melting point fell in the range of 202 to 204 °C. Besides, at telomerase, the midpoint of inhibition, the IC50, lay at 5.11 ± 1.1 µM.

`COc1cc(OC)c2c(=O)c(OCC(=O)Nc3nnc(-c4ccccc4Br)o3)c(-c3ccc(OC)c(OC)c3)oc2c1` [B10, N-(5–(2-bromophenyl)-1,3,4-oxadiazol-2-yl)-2–(2-(3,4-dimethoxyphenyl)-5,7-dimethoxy-4-oxo-4H-chromen-3-yloxy)acetamide] displayed a melting point of 226 to 228 °C. In addition, the IC50 at telomerase is more than 60 µM.

Molecule `COc1cc(OC)c2c(=O)c(OCC(=O)Nc3nnc(-c4ccccc4[N+](=O)[O-])o3)c(-c3cc(OC)c(OC)c(OC)c3)oc2c1` [A15, 2–(5,7-dimethoxy-4-oxo-2–(3,4,5-trimethoxyphenyl)-4H-chromen-3-yloxy)-N-(5–(2-nitrophenyl)-1,3,4-oxadiazol-2-yl)acetamide] had a melting point of 204 to 206 °C. At telomerase, this molecule yielded a 50% inhibitory concentration (IC50) of 6.98 ± 0.96 µM.

The molecule `COc1cc(OC)c2c(=O)c(OCC(=O)Nc3nnc(-c4ccc(C)cc4)o3)c(-c3cc(OC)c(OC)c(OC)c3)oc2c1` [A11, 2–(5,7-dimethoxy-4-oxo-2–(3,4,5-trimethoxyphenyl)-4H-chromen-3-yloxy)-N-(5-p-tolyl-1,3,4-oxadiazol-2-yl)acetamide] registered a melting point of 225 to 227 °C. Also, 2.35 ± 0.48 µM corresponded to half-maximal inhibition against telomerase (IC50).

`COc1cc(OC)cc(-c2nnc(NC(=O)COc3c(-c4ccc(OC)c(OC)c4)oc4cc(OC)cc(OC)c4c3=O)o2)c1` [B26, N-(5–(3,5-dimethoxyphenyl)-1,3,4-oxadiazol-2-yl)-2–(2-(3,4-dimethoxyphenyl)-5,7-dimethoxy-4-oxo-4H-chromen-3-yloxy)acetamide] registered a melting point of 200 to 202 °C. The same molecule registered an IC50 against telomerase of 3.99 ± 0.85 µM.

For the molecule `COc1cc(OC)c2c(=O)c(OCC(=O)Nc3nnc(-c4cccc(C)c4)o3)c(-c3ccc(OC)c(OC)c3)oc2c1` [B12, 2–(2-(3,4-dimethoxyphenyl)-5,7-dimethoxy-4-oxo-4H-chromen-3-yloxy)-N-(5-m-tolyl-1,3,4-oxadiazol-2-yl)acetamide], the melting point was 221 to 223 °C. On telomerase, the concentration for half-maximal inhibition (IC50) was more than 60 µM.

`COc1cc(OC)c2c(=O)c(OCC(=O)Nc3nnc(-c4ccc(F)cc4)o3)c(-c3ccc(OC)c(OC)c3)oc2c1` [B2, 2–(2-(3,4-dimethoxyphenyl)-5,7-dimethoxy-4-oxo-4H-chromen-3-yloxy)-N-(5–(4-fluorophenyl)-1,3,4-oxadiazol-2-yl)acetamide] registered a melting point of 236 to 238 °C. This molecule displayed an IC50 at telomerase of 1.38 ± 0.25 µM.

For `COc1cc(OC)c2c(=O)c(OCC(=O)Nc3nnc(-c4ccccc4OC(F)(F)F)o3)c(-c3ccc(OC)c(OC)c3)oc2c1` [B21, 2–(2-(3,4-dimethoxyphenyl)-5,7-dimethoxy-4-oxo-4H-chromen-3-yloxy)-N-(5–(2-(trifluoromethoxy)phenyl)-1,3,4-oxadiazol-2-yl)acetamide], the melting point lay within 226 to 228 °C. Inhibition on telomerase was half-maximal at 9.22 ± 1.01 µM (IC50).

The molecule `COc1cc(OC)c2c(=O)c(OCC(=O)Nc3nnc(-c4ccccc4)o3)c(-c3ccc(OC)c(OC)c3)oc2c1` [B1, 2–(2-(3,4-dimethoxyphenyl)-5,7-dimethoxy-4-oxo-4H-chromen-3-yloxy)-N-(5-phenyl-1,3,4-oxadiazol-2-yl)acetamide] returned a melting point of 237 to 239 °C. This molecule returned an IC50 at telomerase of more than 60 µM.

`COc1cc(OC)c2c(=O)c(OCC(=O)Nc3nnc(-c4cccc(F)c4)o3)c(-c3cc(OC)c(OC)c(OC)c3)oc2c1` [A3, 2–(5,7-dimethoxy-4-oxo-2–(3,4,5-trimethoxyphenyl)-4H-chromen-3-yloxy)-N-(5–(3-fluorophenyl)-1,3,4-oxadiazol-2-yl)acetamide] returned a melting point of 217 to 219 °C. The molecule also registered an IC50 on telomerase of 2.57 ± 0.5 µM.

For the molecule `COc1cc(OC)c2c(=O)c(OCC(=O)Nc3nnc(-c4ccc(OC(F)(F)F)cc4)o3)c(-c3ccc(OC)c(OC)c3)oc2c1` [B19, 2–(2-(3,4-dimethoxyphenyl)-5,7-dimethoxy-4-oxo-4H-chromen-3-yloxy)-N-(5–(4-(trifluoromethoxy)phenyl)-1,3,4-oxadiazol-2-yl)acetamide], the melting point is 217 to 219 °C. The molecule also yielded an IC50 against telomerase of 1.77 ± 0.6 µM.

`COc1cc(OC)c2c(=O)c(OCC(=O)Nc3nnc(-c4ccc5c(c4)OCCO5)o3)c(-c3ccc(OC)c(OC)c3)oc2c1` [B29, N-(5–(2,3-dihydrobenzo[b][1, 4]dioxin-6-yl)-1,3,4-oxadiazol-2-yl)-2–(2-(3,4-dimethoxyphenyl)-5,7-dimethoxy-4-oxo-4H-chromen-3-yloxy)acetamide] gave a melting point of 228 to 230 °C. The molecule further yielded an IC50 on telomerase of 2.98 ± 0.27 µM.

For `COc1cc(OC)c2c(=O)c(OCC(=O)Nc3nnc(-c4ccccc4C)o3)c(-c3cc(OC)c(OC)c(OC)c3)oc2c1` [A13, 2–(5,7-dimethoxy-4-oxo-2–(3,4,5-trimethoxyphenyl)-4H-chromen-3-yloxy)-N-(5-o-tolyl-1,3,4-oxadiazol-2-yl)acetamide], the melting point lay within 205 to 207 °C. Also, the midpoint of inhibition against telomerase, the IC50, lay at 25.1 ± 2.01 µM.

As to `COc1cc(OC)c2c(=O)c(OCC(=O)Nc3nnc(-c4cccs4)o3)c(-c3ccc(OC)c(OC)c3)oc2c1` [B32, 2–(2-(3,4-dimethoxyphenyl)-5,7-dimethoxy-4-oxo-4H-chromen-3-yloxy)-N-(5-(thiophen-2-yl)-1,3,4-oxadiazol-2-yl)acetamide], the melting point is 238 to 240 °C. Half-maximal inhibition against telomerase (IC50) required 3.75 ± 0.39 µM.

Source of the values: PMC7782168, “Synthesis, telomerase inhibitory and anticancer activity of new 2-phenyl-4H-chromone derivatives containing 1,3,4-oxadiazole moiety” (Journal of Enzyme Inhibition and Medicinal Chemistry, 2020).
